Source: patent US20040132803A1, “Agent for the treatment of overactive bladder” (priority 2003, published 2004)

What was measured:
[1] = system: delayed rectifier K^+ currents; assay: Voltage-clamp outward K^+ currents at HP −20 mV in unidentified DRG neurons; type: cell-based, rat; details: for K^+ current at HP: −20 mV, relative value (before compound = 1): unidentified DRG neurons
Method: Experiments were performed on adult female Sprague Dawley rats. First and second series of the experiments were performed, respectively, in unidentified DRG neurons and a specific population of DRG neurons innervating the urinary bladder. The population of DRG neurons that innervate the urinary bladder were labeled by retrograde axonal transport of the fluorescent dye, Fast Blue (4% w/v) (Polyloy, Gross Umstadt, Germany), injected into the wall of the bladder in halothane-anesthetized animals 7 days before the dissociation. The dye was injected with a 28 gauge needle at three to six sites on the dorsal surface of the organ (5-6 μL per site, total volume of 20-30 μL). Each injection site was washed with saline to minimize contamination of adjacent organs with the dye.
(§1) Freshly dissociated neurons from DRG were prepared from halothane-anesthetized animals. L6 and S1 DRG were dissected from animals and then dissociated in a shaking bath for 25 minutes at 35° C. with 5 mL DMEM (Sigma) containing 0.3 mg/mL trypsin (Type 3, Sigma), 1 mg/mL collagenase (Type 1, Sigma), and 0.1 mg/mL deoxyribonuclease (Type 4, Sigma). Trypsin inhibitor (Type 2a, Sigma) was then added thereto to neutralize the activity of trypsin. Individual DRG cell bodies were isolated by trituration and then plated on a poly-L-lysine-coated 35 mm Petri dishes.
(§2) Dye-labeled primary afferent neurons that innervate the urinary bladder were identified using an inverted phase-contrast microscope (Nikon, Tokyo, Japan) with fluorescent attachments (UV-1A filter; excitation wavelength, 365 nm). Gigaohm-seal whole-cell recordings were performed at room temperature (20-22° C.) on each labeled neuron in a culture dish that usually contained three to seven labeled cells among a few hundred unlabeled neurons. The internal solution contained (in mmol/L): KCl 140, CaCl2 1, MgCl2 2, EGTA 11, HEPES 10, Mg-ATP 2, and Tris-GTP 0.4 adjusted to pH 7.4 with KOH. Patch electrodes had resistances of 1-4 MΩ when filled with the internal solution. Neurons were superfused at a flow rate of 1.5 mL/minutes with an external solution containing (in mmol/L): NaCl 150, KCl 5, CaCl2 2.5, MgCl2 1, HEPES 10, and D-glucose 10, adjusted to pH 7.4 with NaOH. All recordings were made with an Axopatch-1D patch-clamp amplifier (Axon Instruments, Foster City, Calif.), and data were acquired and analyzed by PCLAMP software (Axon Instruments).
In voltage-clamp recordings, outward K^+ currents and inward Na^+ currents were measured. For the isolation of K^+ currents, the external solution was changed to one containing (in mmol/L): choline-Cl 150, KOH 5, CaCl2 0.03, HEPES 10, Mg(OH)2 3, and D-glucose 10, adjusted to pH 7.4 with HCl.
In first series of experiments using unidentified DRG neurons, outward K^+ currents were evoked by voltage steps to +60 mV, 800 ms long from a holding potentials of −90 mV, this was followed by a 1-second conditioning prepulse to −20 mV followed by a second pulse to +60 mV, identical to the first in the sequence. In the second series of experiments using Fast Blue-labeled bladder afferent neurons, slowly-inactivating A-type K^+ currents were isolated by. subtraction of outward K^+ currents activated from a holding potential of −40 mV (on the condition of inactivation of the majority of slowly-inactivating A-type K^+ currents) from those activated from a holding potential of −120 mV (on the condition of full activation of slowly-inactivating A-type K^+ currents). A compound was added cumulatively, starting with a lower concentration. Currents were measured at the maximum (peak) and normalized to control (before addition of the compound).

DRG cells = assay: Current-clamp membrane potential in DRG cells; type: cell-based, rat; details: for Membrane potential (mV): current clamp
Method: Experiments were performed on adult female Sprague Dawley rats. A population of unidentified DRG cells and a population of DRG neurons that innervate the urinary bladder were labeled by retrograde axonal transport of the fluorescent dye, Fast Blue (4% w/v) (Polyloy, Gross Umstadt, Germany), injected into the wall of the bladder in halothane-anesthetized animals 7 days before the dissociation. The dye was injected with a 28 gauge needle at three to six sites on the dorsal surface of the organ (5-6 μL per site, total volume of 20-30 μL). Each injection site was washed with saline to minimize contamination of adjacent organs with the dye.
as §1
as §2, with “performed within 6-8 hours after cell dissociation” for “performed”, “M Ω” for “MΩ”
In current-clamp recordings, membrane potential of DRG cells were measured before and after compound applications. The membrane potentials were normalized to control (before addition of the compound).

With `C[C@](O)(C(=O)Nc1cccc2c1C(=O)c1sccc1CS2(=O)=O)C(F)(F)F` [Compound 1, (S)-(+)-N-(5,5-dioxido-10-oxo-4,10-dihydrothieno[3,2-c][l]benzothiepin-9-yl)-3,3,3-trifluoro-2-hydroxy-2-methylpropanamide] the “K^+ current at HP: −20 mV, relative value” ([1]; 1.0 × 10^−5 mol/L, in the presence of 5 μmol/L verapamil) was 1.00 ± 0.02, the “K^+ current at HP: −20 mV, relative value” ([1]; 1.0 × 10^−5 mol/L, in the presence of 20 mmol/L tetraethylammonium) was 1.01 ± 0.02 and the “K^+ current at HP: −20 mV, relative value (before compound = 1)” value ([1]; 1.0 × 10^−5 mol/L) was 0.88 ± 0.07. For the same molecule, the “K^+ current at HP: −20 mV, relative value” ([1]; 1.0 × 10^−6 mol/L, in the presence of 5 μmol/L verapamil) was 1.00 ± 0.01, the “K^+ current at HP: −20 mV, relative value” ([1]; 1.0 × 10^−6 mol/L, in the presence of 20 mmol/L tetraethylammonium) was 1.00 ± 0.00 and the “K^+ current at HP: −20 mV, relative value (before compound = 1)” value ([1]; 1.0 × 10^−6 mol/L) was 1.00 ± 0.02. For the same molecule, the “K^+ current at HP: −20 mV, relative value” ([1]; 1.0 × 10^−7 mol/L, in the presence of 5 μmol/L verapamil) was 1.00 ± 0.01, the “K^+ current at HP: −20 mV, relative value” ([1]; 1.0 × 10^−7 mol/L, in the presence of 20 mmol/L tetraethylammonium) was 0.99 ± 0.02 and the “K^+ current at HP: −20 mV, relative value (before compound = 1)” value ([1]; 1.0 × 10^−7 mol/L) was 1.02 ± 0.01. For the same molecule, the “K^+ current at HP: −20 mV, relative value (before compound = 1)” value ([1]; 1.0 × 10^−8 mol/L) was 0.98 ± 0.04, the “K^+ current at HP: −20 mV, relative value (before compound = 1)” value ([1]; 2.5 × 10^−8 mol/L) was 1.01 ± 0.03 and the “K^+ current at HP: −20 mV, relative value” ([1]; 5.0 × 10^−4 mol/L, in the presence of 5 μmol/L verapamil) was 0.83 ± 0.06. The “K^+ current at HP: −20 mV, relative value” ([1]; 5.0 × 10^−4 mol/L, in the presence of 20 mmol/L tetraethylammonium) was 0.25 ± 0.04, the “K^+ current at HP: −20 mV, relative value” ([1]; 5.0 × 10^−4 mol/L, in the presence of 60 mmol/L tetraethylammonium) was 0.54 ± 0.02 and the “K^+ current at HP: −20 mV, relative value” ([1]; 5.0 × 10^−5 mol/L, in the presence of 5 μmol/L verapamil) was 0.98 ± 0.01. The “K^+ current at HP: −20 mV, relative value” ([1]; 5.0 × 10^−5 mol/L, in the presence of 20 mmol/L tetraethylammonium) was 0.84 ± 0.06, the “K^+ current at HP: −20 mV, relative value” ([1]; 5.0 × 10^−5 mol/L, in the presence of 60 mmol/L tetraethylammonium) was 0.95 ± 0.03 and the “K^+ current at HP: −20 mV, relative value (before compound = 1)” value ([1]; 5.0 × 10^−5 mol/L) was 0.81 ± 0.08. The “K^+ current at HP: −20 mV, relative value” ([1]; 5.0 × 10^−6 mol/L, in the presence of 5 μmol/L verapamil) was 1.01 ± 0.01, the “K^+ current at HP: −20 mV, relative value” ([1]; 5.0 × 10^−6 mol/L, in the presence of 20 mmol/L tetraethylammonium) was 0.98 ± 0.01 and the “K^+ current at HP: −20 mV, relative value” ([1]; 5.0 × 10^−6 mol/L, in the presence of 60 mmol/L tetraethylammonium) was 0.97 ± 0.02. The “K^+ current at HP: −20 mV, relative value” ([1]; 5.0 × 10^−7 mol/L, in the presence of 5 μmol/L verapamil) was 1.00 ± 0.01, the “K^+ current at HP: −20 mV, relative value” ([1]; 5.0 × 10^−7 mol/L, in the presence of 20 mmol/L tetraethylammonium) was 1.01 ± 0.01 and the “K^+ current at HP: −20 mV, relative value” ([1]; 5.0 × 10^−7 mol/L, in the presence of 60 mmol/L tetraethylammonium) was 0.97 ± 0.03. The “K^+ current at HP: −20 mV, relative value (before compound = 1)” value ([1]; 5.0 × 10^−7 mol/L) was 1.01 ± 0.02, the “K^+ current at HP: −20 mV, relative value” ([1]; 5.0 × 10^−8 mol/L, in the presence of 5 μmol/L verapamil) was 1.00 ± 0.00 and the “K^+ current at HP: −20 mV, relative value” ([1]; 5.0 × 10^−8 mol/L, in the presence of 20 mmol/L tetraethylammonium) was 0.99 ± 0.01. The “K^+ current at HP: −20 mV, relative value” ([1]; 5.0 × 10^−8 mol/L, in the presence of 60 mmol/L tetraethylammonium) was 1.00 ± 0.01, the “K^+ current at HP: −20 mV, relative value (before compound = 1)” value ([1]; 5.0 × 10^−8 mol/L) was 1.00 ± 0.01 and the “K^+ current at HP: −20 mV, relative value” ([1]; 5.0 × 10^−9 mol/L, in the presence of 20 mmol/L tetraethylammonium) was 0.99 ± 0.00. The “K^+ current at HP: −20 mV, relative value (before compound = 1)” value ([1]; 5.0 × 10^−9 mol/L) was 0.98 ± 0.02, the “influence upon delayed rectifier K^+ currents” value ([1]; unidentified DRG cells, HP −20 mV) was “does not have no influences (little influences)” and the “effect on membrane potential” value (DRG cells) was “hyperpolarization”. The “Membrane potential (mV)” value (DRG cells; 1.0 × 10^−6 mol/L) was −53.67 ± 0.74 mV, the “Membrane potential (mV)” value (DRG cells; 1.0 × 10^−7 mol/L) was −57.17 ± 0.53 mV and the “Membrane potential (mV)” value (DRG cells; 1.0 × 10^−8 mol/L) was −49.80 ± 0.65 mV. The “Membrane potential (mV)” value (DRG cells; 1.0 × 10^−9 mol/L) was −48.10 ± 0.48 mV, the “Membrane potential (mV)” value (DRG cells; 5.0 × 10^−4 mol/L) was −42.67 ± 1.46 mV and the “Membrane potential (mV)” value (DRG cells; 5.0 × 10^−5 mol/L) was −48.50 ± 1.28 mV. The “Membrane potential (mV)” value (DRG cells; 5.0 × 10^−6 mol/L) was −50.50 ± 0.88 mV.
